The results in this text go back to US20230017045A1, “PYRIDINE AND PYRIMIDINE CARBOXYLATE HERBICIDES AND METHODS OF USE THEREOF” (Dow AgroSciences LLC, priority 2017, published 2023).

The test system of the assay is test plant species. Briefly: Post-emergent herbicidal activity test (greenhouse, foliar spray, visual growth reduction). The format is in vivo. To be noted: post-emergence, 336 h, 140 g ai/ha. An outline of the steps: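 Visual scoring 14 d after treatment (0 = no injury, 100 = complete control) against nontreated and solvent-blank plants gave percent growth reduction. Foliar application used a track sprayer delivering 187 L/ha to seedlings at first or second true leaf stage, grown at 23–29 °C day, ~15 h photoperiod.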

Setting [1] is: ECHCG: barnyardgrass (Echinochloa crus-galli), 14 days after application, read-out: Visual Growth Reduction (%) 14 Days After Application, ECHCG.
Where [2] appears, read: IPOHE: ivy-leaf morning glory (Ipomoea hederacea), 14 days after application, read-out: Visual Growth Reduction (%) 14 Days After Application, IPOHE.
Setting [3] is: KCHSC: kochia (Bassia scoparia), 14 days after application, read-out: Visual Growth Reduction (%) 14 Days After Application, KCHSC.
[4] abbreviates: ORYSA: rice (Oryza sativa), 14 days after application, read-out: Visual Growth Reduction (%) 14 Days After Application, ORYSA.
[5] abbreviates: SETFA: giant foxtail (Setaria faberi), 14 days after application, read-out: Visual Growth Reduction (%) 14 Days After Application, SETFA.
The mark [6] stands for this setting: SORVU: grain sorghum (Sorghum vulgare), 14 days after application, read-out: Visual Growth Reduction (%) 14 Days After Application, SORVU.
[7] abbreviates: STEME: common chickweed (Stellaria media), 14 days after application, read-out: Visual Growth Reduction (%) 14 Days After Application, STEME.
Setting [8] is: TRZAS: wheat, spring (Triticum aestivum), 14 days after application, read-out: Visual Growth Reduction (%) 14 Days After Application, TRZAS.
Setting [9] is: blackgrass (Alopecurus myosuroides), 14 Days After Application, read-out: Visual Growth Reduction (%) ALOMY.
Where [10] appears, read: crabgrass (Digitaria sanguinalis), 14 Days After Application, read-out: Visual Growth Reduction (%) DIGSA.
[11] abbreviates: lambsquarters (Chenopodium album), 14 Days After Application, read-out: Visual Growth Reduction (%) CHEAL.
Where [12] appears, read: redroot pigweed (Amaranthus retroflexus), 14 Days After Application, read-out: Visual Growth Reduction (%) AMARE.
Setting [13] is: wild oat (Avena fatua), 14 Days After Application, read-out: Visual Growth Reduction (%) AVEFA.
The mark [14] stands for this setting: yellow nutsedge (Cyperus esculentus), 14 Days After Application, read-out: Visual Growth Reduction (%) CYPES.

Where two headings read alike, the source gives them in different places.

On to `O=C(O)c1nc(-c2cc3c(cc2F)OC(F)(F)O3)c(F)cc1Cl` [F334, 3-Chloro-5-fluoro-6-(2,2,6-trifluorobenzo[d][1,3]dioxol-5-yl)picolinic acid], for which the pest or weed control at 140 g/ha reads like this: under setting [1], 75 to 84%; under setting [2], 95 to 100%; under setting [3], 60 to 74%; under setting [4], 45 to 59%; under setting [5], 75 to 84%; under setting [6], 95 to 100%. Also, the pest or weed control at 140 g/ha was in the range of 0 to 29% under setting [7]; 75 to 84% under setting [8]; 75 to 84% under setting [9]; 95 to 100% under setting [10]; 75 to 84% under setting [11]; 75 to 84% under setting [12]. The pest or weed control at 140 g/ha under setting [13] lay in the range of 60 to 74% and the pest or weed control at 140 g/ha under setting [14] lay within 60 to 74%.
`COC(=O)c1nc(-c2cc3c(cc2F)OC(F)(F)O3)c(OC)cc1Cl` [F335, Methyl 3-chloro-5-methoxy-6-(2,2,6-trifluorobenzo[d][1,3]dioxol-5-yl)picolinate]: the pest or weed control at 140 g/ha is 0 to 29% under setting [1]; 0 to 29% under setting [2]; 0 to 29% under setting [3]; 0 to 29% under setting [4]; 0 to 29% under setting [5]; 0 to 29% under setting [6]. In addition, the pest or weed control at 140 g/ha runs as follows: under setting [7], 0 to 29%; under setting [8], 0 to 29%; under setting [9], 0 to 29%; under setting [10], 0 to 29%; under setting [11], 30 to 44%; under setting [12], 0 to 29%. The pest or weed control at 140 g/ha is, setting by setting: under setting [13], 0 to 29%; under setting [14], 0 to 29%.
As for `COC(=O)c1nc(-c2cc3c(cc2F)OC(F)(F)O3)c(F)cc1OC` [F336, Methyl 5-fluoro-3-methoxy-6-(2,2,6-trifluorobenzo[d][1,3]dioxol-5-yl)picolinate], the pest or weed control at 140 g/ha by setting is: under setting [1], 0 to 29%; under setting [2], 0 to 29%; under setting [3], 0 to 29%; under setting [4], 0 to 29%; under setting [5], 0 to 29%; under setting [6], 75 to 84%. The pest or weed control at 140 g/ha lay within 0 to 29% under setting [7]; 30 to 44% under setting [8]; 0 to 29% under setting [9]; 60 to 74% under setting [10]; 30 to 44% under setting [11]; 30 to 44% under setting [12]. The pest or weed control at 140 g/ha is 0 to 29% under setting [13] and 0 to 29% under setting [14].
In the case of `COc1cc(-c2nc(C(=O)O)c(Cl)cc2F)c(Cl)cc1C(F)(F)F` [F337, 3-Chloro-6-(2-chloro-5-methoxy-4-(trifluoromethyl)phenyl)-5-fluoropicolinic acid], the pest or weed control at 140 g/ha by setting is: under setting [1], 60 to 74%; under setting [2], 95 to 100%; under setting [3], 85 to 94%; under setting [4], 0 to 29%; under setting [5], 85 to 94%; under setting [6], 75 to 84%. Further, the pest or weed control at 140 g/ha was 0 to 29% under setting [7]; 30 to 44% under setting [8]; 0 to 29% under setting [9]; 45 to 59% under setting [10]; 75 to 84% under setting [11]; 30 to 44% under setting [12]. For the same molecule, the pest or weed control at 140 g/ha lay within 0 to 29% under setting [13] and 0 to 29% under setting [14].
For `C=Cc1c(C(F)(F)F)ccc(-c2nc(C(=O)OC)c(Cl)cc2F)c1Cl` [F338, Methyl 3-chloro-6-(2-chloro-4-(trifluoromethyl)-3-vinylphenyl)-5-fluoropicolinate], the pest or weed control at 140 g/ha under setting [1] was 0 to 29%; the pest or weed control at 140 g/ha under setting [2] fell in the range of 95 to 100%; the pest or weed control at 140 g/ha under setting [3] lay in the range of 45 to 59%; the pest or weed control at 140 g/ha under setting [4] lay in the range of 0 to 29%; the pest or weed control at 140 g/ha under setting [5] is 75 to 84%; the pest or weed control at 140 g/ha under setting [6] fell in the range of 85 to 94%. Also, the pest or weed control at 140 g/ha reads like this: under setting [7], 0 to 29%; under setting [8], 30 to 44%; under setting [9], 0 to 29%; under setting [10], 60 to 74%; under setting [11], 85 to 94%; under setting [12], 95 to 100%. For the same molecule, the pest or weed control at 140 g/ha lay in the range of 30 to 44% under setting [13] and 0 to 29% under setting [14].
Turning to `COC(=O)c1nc(-c2ccc(C(F)(F)F)c(C)c2Cl)c(F)cc1Cl` [F339, Methyl 3-chloro-6-(2-chloro-3-methyl-4-(trifluoromethyl)phenyl)-5-fluoropicolinate], the pest or weed control at 140 g/ha fell in the range of 0 to 29% under setting [1]; 95 to 100% under setting [2]; 85 to 94% under setting [3]; 0 to 29% under setting [4]; 0 to 29% under setting [5]; 60 to 74% under setting [6]. Moreover, the pest or weed control at 140 g/ha by setting is: under setting [7], 0 to 29%; under setting [8], 0 to 29%; under setting [9], 0 to 29%; under setting [10], 0 to 29%; under setting [11], 95 to 100%; under setting [12], 95 to 100%. Also, the pest or weed control at 140 g/ha fell in the range of 0 to 29% under setting [13] and 60 to 74% under setting [14].
In the case of `COC(=O)c1nc(-c2ccc3ccccc3c2)c(F)cc1Cl` [F340, Methyl 3-chloro-5-fluoro-6-(naphthalen-2-yl)picolinate], the pest or weed control at 140 g/ha fell in the range of 0 to 29% under setting [1]; 0 to 29% under setting [2]; 0 to 29% under setting [3]; 0 to 29% under setting [4]; 0 to 29% under setting [5]; 0 to 29% under setting [6]. Further, the pest or weed control at 140 g/ha by setting is: under setting [7], 0 to 29%; under setting [8], 0 to 29%; under setting [9], 0 to 29%; under setting [10], 0 to 29%; under setting [11], 0 to 29%; under setting [12], 0 to 29%. Further, the pest or weed control at 140 g/ha lay within 0 to 29% under setting [13] and 0 to 29% under setting [14].
Regarding `COC(=O)c1nc(-c2ccc(C(F)(F)F)c(Br)c2Cl)c(F)cc1Cl` [F341, Methyl 6-(3-bromo-2-chloro-4-(trifluoromethyl)phenyl)-3-chloro-5-fluoropicolinate], the pest or weed control at 140 g/ha is, setting by setting: under setting [1], 0 to 29%; under setting [2], 95 to 100%; under setting [3], 60 to 74%; under setting [4], 0 to 29%; under setting [5], 85 to 94%; under setting [6], 95 to 100%. Further, the pest or weed control at 140 g/ha was 30 to 44% under setting [7]; 45 to 59% under setting [8]; 30 to 44% under setting [9]; 85 to 94% under setting [10]; 85 to 94% under setting [11]; 95 to 100% under setting [12]. Also, the pest or weed control at 140 g/ha under setting [13] lay in the range of 45 to 59% and the pest or weed control at 140 g/ha under setting [14] lay in the range of 0 to 29%.
